Laboratory results taken from patent US20090149496A1, “INHIBITORS OF THE TASK-1 AND TASK-3 ION CHANNEL” (SANOFI-AVENTIS DEUTSCHLAND GMBH, priority 2006, published 2009).

Experiments:
human TASK-3 channel = target: T1, human TASK-3 channel (Homo sapiens, UniProt Q9NPC2); assay: Activity on the TASK-3 channel by patch-clamp on CHO cells; format: cell-based; conditions: whole cell, CHO cells expressing human TASK-3, read-out: IC50 (μmol/l) TASK3 (human)
T1 construct: expressed in transfected cells; host or cells: CHO DHFR-minus cells, clone CHO-244-8-1
T1 sequence (Q9NPC2 whole entry): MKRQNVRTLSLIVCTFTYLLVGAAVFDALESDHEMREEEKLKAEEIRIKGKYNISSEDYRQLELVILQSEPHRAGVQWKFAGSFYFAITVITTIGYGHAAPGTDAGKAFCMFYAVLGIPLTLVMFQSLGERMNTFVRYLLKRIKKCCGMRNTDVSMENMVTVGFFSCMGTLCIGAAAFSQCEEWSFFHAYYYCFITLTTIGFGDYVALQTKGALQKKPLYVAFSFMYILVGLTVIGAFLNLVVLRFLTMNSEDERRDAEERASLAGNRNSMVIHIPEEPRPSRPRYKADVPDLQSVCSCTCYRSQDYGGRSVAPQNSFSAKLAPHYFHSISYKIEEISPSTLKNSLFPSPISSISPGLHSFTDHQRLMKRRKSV
Description: C) Determination of the Activity on the TASK-3 Channel by Patch-Clamp Investigations
With the aid of the patch-clamp technique, the inhibition of the human TASK-3 current by the example compounds was measured on CHO cells in which the human TASK-3 channel is expressed. To produce the TASK-3 cell line, the human TASK-3 cDNA (Genbank, Accession Number AF248241) was cloned into the eukaryotic expression vector p658, which bears a DHFR (dihydrofolate reductase) resistance gene [reference: Gene 1994 (149), 341-344, 1994]. CHO (Chinese hamster ovary) DHFR-minus cells were transfected with the TASK-3 expression construct using the Fugene reagent (Roche Biochemicals) according to the manufacturer's instructions. […] Resulting cell clones were analyzed for the expression of TASK-3 with the aid of a fluorescence-based activity assay in a FlexStation (Molecular Devices) and with a membrane potention-sensitive dye (Molecular Devices FMP Dye Kit). […] TASK-3-positive cell clones were subsequently analyzed for resulting potassium currents with the patch-clamp technique. […]
To investigate the substances, the cells were introduced into a measurement chamber which is mounted on an inverted microscope. […] The concentration of the half-maximum inhibition of the current (IC50 value) was determined by fitting the curve to the mathematical Hill equation.
In this analysis, the following IC50 values were determined: […]

TASK1 (human) [1] = target: T2, TASK1 (human) (Homo sapiens, UniProt O14649); assay: Activity on the TASK-1 channel in Xenopus oocytes (two-microelectrode voltage clamp), human channel; format: cell-based; design: expressed in transfected cells; host or cells: Xenopus laevis oocytes injected with in vitro synthesized RNA; conditions: human TASK-1 expressed in Xenopus oocytes, voltage jumps to 40 mV, pH 7.4, room temperature; read-out: IC50 (μmol) TASK1 (human)
T2 sequence (O14649 whole entry): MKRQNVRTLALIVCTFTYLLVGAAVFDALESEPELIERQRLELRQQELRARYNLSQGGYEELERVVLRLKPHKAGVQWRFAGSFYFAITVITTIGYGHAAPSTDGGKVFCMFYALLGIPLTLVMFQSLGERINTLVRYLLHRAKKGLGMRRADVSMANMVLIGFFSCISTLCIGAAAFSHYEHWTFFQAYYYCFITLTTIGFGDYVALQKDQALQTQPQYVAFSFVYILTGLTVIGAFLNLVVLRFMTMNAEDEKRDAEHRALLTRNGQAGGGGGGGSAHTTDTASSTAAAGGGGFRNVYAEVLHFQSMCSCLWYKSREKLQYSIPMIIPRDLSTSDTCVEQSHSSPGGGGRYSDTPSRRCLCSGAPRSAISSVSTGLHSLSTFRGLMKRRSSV
Description: (§1) A) Determination of the Activity on the TASK-1 Channel in Xenopus Oocytes
(§2) Mouse or human TASK-1 channels were expressed in Xenopus oocytes. For this purpose, oocytes were first isolated from Xenopus levis and defolliculated. Subsequently, TASK-1-encoding RNA synthesized in vitro was injected into these oocytes. After two days of TASK-1 protein expression, TASK-1 currents were measured on the oocytes with the two-microelectrode voltage clamp technique. In this measurement, the TASK-1 channels were generally activated with voltage jumps lasting 250 ms to 40 mV. The bath was flushed with a solution of the following composition: NaCl 96 mM, KCl 2 mM, CaCl2 1.8 mM, MgCl2 1 mM, HEPES 5 mM (titrated to pH 7.4 with NaOH). These experiments were performed at room temperature. For data acquisition and analysis, the following were used: Geneclamp amplifier (Axon Instruments, Foster City, USA) and MacLab D/A converter and software (ADinstruments, Castle Hill, Australia). The inventive substances were tested by adding them to the bath solution in different concentrations. The effects of the substances were calculated as the percentage inhibition of the TASK-1 control current which was obtained when no substance was added to the solution. The data was subsequently fitted to the Hill equation in order to determine the half-maximum inhibitory concentrations (IC50 values) for the particular substances.

TASK1 (human) [2] = target: T2, TASK1 (human); assay: Activity on the TASK-1 channel with the FLIPR technique on CHO cells; format: cell-based; design: expressed in transfected cells; host or cells: CHO cells; conditions: inhibition of human TASK-1 current, 10 μmol/l
Excerpt: B) Determination of the Activity on the TASK-1 Channel with the FLIPR Technique

TASK1 (mouse) = target: T3, TASK1 (mouse) (Mus musculus, UniProt O35111); assay: Activity on the TASK-1 channel in Xenopus oocytes (two-microelectrode voltage clamp), mouse channel; format: cell-based; conditions: mouse TASK-1 expressed in Xenopus oocytes, voltage jumps to 40 mV, pH 7.4, room temperature; read-out: IC50 (μmol) TASK1 (mouse)
T3 construct: expressed in transfected cells; host or cells: Xenopus laevis oocytes injected with in vitro synthesized RNA
T3 sequence (O35111 whole entry): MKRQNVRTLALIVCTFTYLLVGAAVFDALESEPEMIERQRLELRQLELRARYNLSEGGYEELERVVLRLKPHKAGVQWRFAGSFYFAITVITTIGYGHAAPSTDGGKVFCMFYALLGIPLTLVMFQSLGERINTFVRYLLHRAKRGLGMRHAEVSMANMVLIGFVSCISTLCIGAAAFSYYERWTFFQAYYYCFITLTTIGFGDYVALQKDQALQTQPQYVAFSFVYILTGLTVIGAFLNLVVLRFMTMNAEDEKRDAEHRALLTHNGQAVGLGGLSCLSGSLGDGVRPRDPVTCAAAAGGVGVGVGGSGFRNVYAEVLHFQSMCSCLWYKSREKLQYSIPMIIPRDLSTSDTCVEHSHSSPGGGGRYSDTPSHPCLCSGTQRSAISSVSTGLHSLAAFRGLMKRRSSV
Description: as §1, §2

genioglossus muscle = assay: Electromyographic activity of the genioglossus muscle in narcotized rats; format: in vivo, rat
Description: (§3) E) Investigation of the Effect on the Electromyographic Activity of the Genioglossus Muscle and the Respiratory Minute Volume in Rats
(§4) The compound of example 1 (R-enantiomer) and of example 2 was investigated for electromyographic activity of the genioglossus muscle and for respiration-stimulating effect on male urethane-chloralose-narcotized, vagotomized rats with a weight of from 250 to 300 g. For this purpose, the genioglossus EMG activity was measured by means of EMG electrodes. The respiration-stimulating effect was investigated by measuring the respiratory minute volume by means of a tracheal cannula. For the investigations, the rats were administered intravenously successively with 1, 3 and 10 mg/kg of the compound of example 1 (R-enantiomer) and of example 2, with glycofurol (50%) as the vehicle, at 15 minute intervals. CO2 was used as the positive control for the stimulation of the genioglossus activity and of the respiratory minute volume.

respiration in rabbits = assay: Action on respiration in rabbits (propofol-induced apnea); format: in vivo; conditions: rabbit, 10 mg/kg i.v., propofol 10 mg/kg/min, n = 13
Description: D) Investigation of the Action on Respiration in Rabbits
An apnea was induced in the rabbit by infusion of the narcotic propofol, 10 mg/kg/min. The vehicle used for the compound of example 1 (R-enantiomer) was DMSO/PEG (0.2 ml/1.8 ml). The time from the start of propofol infusion up to the apnea was recorded.

rats = assay: Compatibility in rats; format: in vivo, rat; conditions: oral administration of 1000 mg/kg
Excerpt: F) Investigation of Compatibility in Rats

respiration = assay: Respiratory minute volume in narcotized rats; format: in vivo, rat
Description: as §3, §4

## CCCCS(=O)(=O)Nc1ccccc1C(=O)N[C@H](CC)c1ccc(OC)nc1 [Example 1 (R-enantiomer), 2-(Butyl-1-sulfonylamino)-N-[1(R)-(6-methoxypyridin-3-yl)propyl]benzamide]
Human TASK-3 channel
  IC50: 1 µmol/L
TASK1 (human) [1]
  IC50: 0.1 µM
TASK1 (human) [2]
  inhibition at 10 µM: 81%
TASK1 (mouse)
  IC50: 0.15 µM
Genioglossus muscle; 1 mg/kg intravenously
  EMG activity of the genioglossus muscle (mean): 4.45 arbitrary units
Genioglossus muscle; 3 mg/kg intravenously
  EMG activity of the genioglossus muscle (mean): 5.59 arbitrary units
Genioglossus muscle; 10 mg/kg intravenously
  EMG activity of the genioglossus muscle (mean): 7.18 arbitrary units
Genioglossus muscle; summary of tables 2 and 4
  Effect on the electromyographic activity of the genioglossus muscle (in words): stimulate
Respiration in rabbits
  Time from the start of propofol infusion up to the apnea (mean): 5.63 min
rats
  Side-effects: no side-effects were observed
other
  melting point: 97 °C
respiration; 1 mg/kg intravenously
  Respiratory minute volume (mean): 246 mL/min
respiration; 3 mg/kg intravenously
  Respiratory minute volume (mean): 317 mL/min
respiration; 10 mg/kg intravenously
  Respiratory minute volume (mean): 375 mL/min
respiration; summary of tables 3 and 5
  Effect on the respiratory minute volume (in words): stimulate
